US20020176889A1 (priority 2000, published 2002)
Counter-ions that a name gives are not always drawn.

Experiment: pH of saturated aqueous solution
Type: physicochemical
Text: The pH of the composition can be controlled or adjusted by the proper selection of excipients. It should be borne in mind that amlodipine maleate is slightly acidic. […] An example of a pH-inert excipient is microcrystalline cellulose.

CCOC(=O)C1=C(COCCN)NC(C)=C(C(=O)OC)C1c1ccccc1Cl (stereo not shown) [amlodipine maleate]
pH as a saturated aqueous solution: about 4.8
